According to ChEMBL document CHEMBL1136454, “Synthesis and biological activity of N-Acylated ornithine analogues of daptomycin” (Bioorg Med Chem Lett, 2003):
In brackets after ≈: the same amount, converted by molar mass.

Tests used:
Type in all cases: functional
[1] = test system: Enterococcus faecium; assay: Antibacterial activity against Enterococcus faecium ATCC 6569
[2] = test system: Enterococcus faecalis; assay: Antibacterial activity against Enterococcus faecalis ATCC 49452
[3] = test system: Staphylococcus aureus; assay: Antibacterial activity against methicillin resistant Staphylococcus aureus ATCC 43300 (MRSA)
[4] = test system: Staphylococcus aureus; assay: Antibacterial activity against methicillin susceptible Staphylococcus aureus ATCC 29213 (MSSA )

Row | SMILES | MIC [1] | MIC [2] | MIC [3] | MIC [4]
1 | CCCCCCCCCC(=O)N[C@@H](Cc1c[nH]c2ccccc12)C(=O)N[C@H](CC(N)=O)C(=O)N[C@@H](CC(=O)O)C(=O)N[C@@H]1C(=O)NCC(=O)N[C@@H](CCCNC(=O)CCc2c[nH]c3ccccc23)C(=O)N[C@@H](CC(=O)O)C(=O)N[C@H](C)C(=O)N[C@@H](CC(=O)O)C(=O)NCC(=O)N[C@H](CO)C(=O)N[C@@H]([C@H](C)CC(=O)O)C(=O)N[C@@H](CC(=O)c2ccccc2N)C(=O)O[C@@H]1C | 12.5 µg/mL (≈ 6.98 µM) | 25 µg/mL (≈ 14 µM) | 1.56 µg/mL (≈ 0.871 µM) | 1.56 µg/mL (≈ 0.871 µM)
2 | CCCCCCCCCC(=O)N[C@@H](Cc1c[nH]c2ccccc12)C(=O)N[C@H](CC(N)=O)C(=O)N[C@@H](CCO)C(=O)N[C@@H]1C(=O)NCC(=O)N[C@@H](CCCNC(=O)C(N)Cc2c[nH]c3ccc(F)cc23)C(=O)N[C@@H](CC(=O)O)C(=O)N[C@H](C)C(=O)N[C@@H](CC(=O)O)C(=O)NCC(=O)N[C@H](CO)C(=O)N[C@@H]([C@H](C)CC(=O)O)C(=O)N[C@@H](CC(=O)c2ccccc2N)C(=O)O[C@@H]1C (some centres not stated) | 3.1 µg/mL (≈ 1.71 µM) | 1.56 µg/mL (≈ 0.861 µM) | 1.56 µg/mL (≈ 0.861 µM) | 1.56 µg/mL (≈ 0.861 µM)
3 | CCCCCCCCCC(=O)N[C@@H](Cc1c[nH]c2ccccc12)C(=O)N[C@H](CC(N)=O)C(=O)N[C@@H](CC(=O)O)C(=O)N[C@@H]1C(=O)NCC(=O)N[C@@H](CCCNC(=O)CC(C)(C)C(=O)O)C(=O)N[C@@H](CC(=O)O)C(=O)N[C@H](C)C(=O)N[C@@H](CC(=O)O)C(=O)NCC(=O)N[C@H](CO)C(=O)N[C@@H]([C@H](C)CC(=O)O)C(=O)N[C@@H](CC(=O)c2ccccc2N)C(=O)O[C@@H]1C | 50 µg/mL (≈ 28.6 µM) | 50 µg/mL (≈ 28.6 µM) | 12.5 µg/mL (≈ 7.15 µM) | 12.5 µg/mL (≈ 7.15 µM)
4 | CCCCCCCCCC(=O)N[C@@H](Cc1c[nH]c2ccccc12)C(=O)N[C@H](CC(N)=O)C(=O)N[C@@H](CCO)C(=O)N[C@@H]1C(=O)NCC(=O)N[C@@H](CCCNC(=O)c2ccccc2)C(=O)N[C@@H](CC(=O)O)C(=O)N[C@H](C)C(=O)N[C@@H](CC(=O)O)C(=O)NCC(=O)N[C@H](CO)C(=O)N[C@@H]([C@H](C)CC(=O)O)C(=O)N[C@@H](CC(=O)c2ccccc2N)C(=O)O[C@@H]1C | 25 µg/mL (≈ 14.6 µM) | 25 µg/mL (≈ 14.6 µM) | 12.5 µg/mL (≈ 7.31 µM) | 6.25 µg/mL (≈ 3.65 µM)
5 | CCCCCCCCCC(=O)N[C@@H](Cc1c[nH]c2ccccc12)C(=O)N[C@H](CC(N)=O)C(=O)N[C@@H](CC(=O)O)C(=O)N[C@@H]1C(=O)NCC(=O)N[C@@H](CCCNC(=O)c2cccc(OC)c2N)C(=O)N[C@@H](CC(=O)O)C(=O)N[C@H](C)C(=O)N[C@@H](CC(=O)O)C(=O)NCC(=O)N[C@H](CO)C(=O)N[C@@H]([C@H](C)CC(=O)O)C(=O)N[C@@H](CC(=O)c2ccccc2N)C(=O)O[C@@H]1C | 10 µg/mL (≈ 5.65 µM) | 10 µg/mL (≈ 5.65 µM) | – | 0.63 µg/mL (≈ 0.356 µM)
6 | CCCCCCCCCC(=O)N[C@@H](Cc1c[nH]c2ccccc12)C(=O)N[C@H](CC(N)=O)C(=O)N[C@@H](CC(=O)O)C(=O)N[C@@H]1C(=O)NCC(=O)N[C@@H](CCCNC(=O)c2ccccc2SC)C(=O)N[C@@H](CC(=O)O)C(=O)N[C@H](C)C(=O)N[C@@H](CC(=O)O)C(=O)NCC(=O)N[C@H](CO)C(=O)N[C@@H]([C@H](C)CC(=O)O)C(=O)N[C@@H](CC(=O)c2ccccc2N)C(=O)O[C@@H]1C | 6.25 µg/mL (≈ 3.53 µM) | 25 µg/mL (≈ 14.1 µM) | 1.56 µg/mL (≈ 0.881 µM) | 3.1 µg/mL (≈ 1.75 µM)
7 | CCCCCCCCCC(=O)N[C@@H](Cc1c[nH]c2ccccc12)C(=O)N[C@@H](CC(N)=O)C(=O)N[C@@H](CC(=O)O)C(=O)N[C@@H]1C(=O)NCC(=O)N[C@@H](CCCNC(=O)C(N)Cc2c[nH]c3ccccc23)C(=O)N[C@@H](CC(=O)O)C(=O)N[C@H](C)C(=O)N[C@@H](CC(=O)O)C(=O)NCC(=O)N[C@H](CO)C(=O)N[C@@H]([C@H](C)CC(=O)O)C(=O)N[C@@H](CC(=O)c2ccccc2N)C(=O)O[C@@H]1C (some centres not stated) | 6.25 µg/mL (≈ 3.46 µM) | 12.5 µg/mL (≈ 6.92 µM) | 1.56 µg/mL (≈ 0.863 µM) | 1.56 µg/mL (≈ 0.863 µM)
8 | CCCCCCCCCC(=O)N[C@@H](Cc1c[nH]c2ccccc12)C(=O)N[C@H](CC(N)=O)C(=O)N[C@@H](CC(=O)O)C(=O)N[C@@H]1C(=O)NCC(=O)N[C@@H](CCCNC(=O)c2ccccc2I)C(=O)N[C@@H](CC(=O)O)C(=O)N[C@H](C)C(=O)N[C@@H](CC(=O)O)C(=O)NCC(=O)N[C@H](CO)C(=O)N[C@@H]([C@H](C)CC(=O)O)C(=O)N[C@@H](CC(=O)c2ccccc2N)C(=O)O[C@@H]1C | 3.1 µg/mL (≈ 1.68 µM) | 12.5 µg/mL (≈ 6.75 µM) | 1.56 µg/mL (≈ 0.843 µM) | 1.56 µg/mL (≈ 0.843 µM)
9 | CCCCCCCCCC(=O)N[C@@H](Cc1c[nH]c2ccccc12)C(=O)N[C@H](CC(N)=O)C(=O)N[C@@H](CC(=O)O)C(=O)N[C@@H]1C(=O)NCC(=O)N[C@@H](CCCNC(=O)c2cccc(C)c2N)C(=O)N[C@@H](CC(=O)O)C(=O)N[C@H](C)C(=O)N[C@@H](CC(=O)O)C(=O)NCC(=O)N[C@H](CO)C(=O)N[C@@H]([C@H](C)CC(=O)O)C(=O)N[C@@H](CC(=O)c2ccccc2N)C(=O)O[C@@H]1C | 10 µg/mL (≈ 5.7 µM) | 10 µg/mL (≈ 5.7 µM) | – | 0.63 µg/mL (≈ 0.359 µM)
10 | CCCCCCCCCC(=O)N[C@@H](Cc1c[nH]c2ccccc12)C(=O)N[C@H](CC(N)=O)C(=O)N[C@@H](CC(=O)O)C(=O)N[C@@H]1C(=O)NCC(=O)N[C@@H](CCCNC(=O)c2ccccc2OC)C(=O)N[C@@H](CC(=O)O)C(=O)N[C@H](C)C(=O)N[C@@H](CC(=O)O)C(=O)NCC(=O)N[C@H](CO)C(=O)N[C@@H]([C@H](C)CC(=O)O)C(=O)N[C@@H](CC(=O)c2ccccc2N)C(=O)O[C@@H]1C | 6.25 µg/mL (≈ 3.56 µM) | 25 µg/mL (≈ 14.2 µM) | 3.1 µg/mL (≈ 1.77 µM) | 1.25 µg/mL (≈ 0.712 µM)
11 | CCCCCCCCCC(=O)N[C@@H](Cc1c[nH]c2ccccc12)C(=O)N[C@H](CC(N)=O)C(=O)N[C@@H](CC(=O)O)C(=O)N[C@@H]1C(=O)NCC(=O)N[C@@H](CCCNC(=O)C(C)CC(=O)c2ccccc2N)C(=O)N[C@@H](CC(=O)O)C(=O)N[C@H](C)C(=O)N[C@@H](CC(=O)O)C(=O)NCC(=O)N[C@H](CO)C(=O)N[C@@H]([C@H](C)CC(=O)O)C(=O)N[C@@H](CC(=O)c2ccccc2N)C(=O)O[C@@H]1C (some centres not stated) | 6.25 µg/mL (≈ 3.45 µM) | 12.5 µg/mL (≈ 6.91 µM) | 1.56 µg/mL (≈ 0.862 µM) | 1.56 µg/mL (≈ 0.862 µM)
12 | CCCCCCCCCC(=O)N[C@@H](Cc1c[nH]c2ccccc12)C(=O)N[C@H](CC(N)=O)C(=O)N[C@@H](CCO)C(=O)N[C@@H]1C(=O)NCC(=O)N[C@@H](CCCNC(=O)c2c(N)cccc2F)C(=O)N[C@@H](CC(=O)O)C(=O)N[C@H](C)C(=O)N[C@@H](CC(=O)O)C(=O)NCC(=O)N[C@H](CO)C(=O)N[C@@H]([C@H](C)CC(=O)O)C(=O)N[C@@H](CC(=O)c2ccccc2N)C(=O)O[C@@H]1C | 3.1 µg/mL (≈ 1.78 µM) | 3.1 µg/mL (≈ 1.78 µM) | 0.78 µg/mL (≈ 0.447 µM) | 0.78 µg/mL (≈ 0.447 µM)
13 | CCCCCCCCCC(=O)N[C@@H](Cc1c[nH]c2ccccc12)C(=O)N[C@H](CC(N)=O)C(=O)N[C@@H](CC(=O)O)C(=O)N[C@@H]1C(=O)NCC(=O)N[C@@H](CCCNC(=O)c2cc(OC)ccc2N)C(=O)N[C@@H](CC(=O)O)C(=O)N[C@H](C)C(=O)N[C@@H](CC(=O)O)C(=O)NCC(=O)N[C@H](CO)C(=O)N[C@@H]([C@H](C)CC(=O)O)C(=O)N[C@@H](CC(=O)c2ccccc2N)C(=O)O[C@@H]1C | 10 µg/mL (≈ 5.65 µM) | 10 µg/mL (≈ 5.65 µM) | – | 2.5 µg/mL (≈ 1.41 µM)
14 | CCCCCCCCCC(=O)N[C@@H](Cc1c[nH]c2ccccc12)C(=O)N[C@H](CC(N)=O)C(=O)N[C@@H](CC(=O)O)C(=O)N[C@@H]1C(=O)NCC(=O)N[C@@H](CCCNC(=O)c2cc(O)ccc2N)C(=O)N[C@@H](CC(=O)O)C(=O)N[C@H](C)C(=O)N[C@@H](CC(=O)O)C(=O)NCC(=O)N[C@H](CO)C(=O)N[C@@H]([C@H](C)CC(=O)O)C(=O)N[C@@H](CC(=O)c2ccccc2N)C(=O)O[C@@H]1C | 10 µg/mL (≈ 5.7 µM) | 10 µg/mL (≈ 5.7 µM) | – | 1.25 µg/mL (≈ 0.712 µM)
